Measurements from patent publication US20100267561A1, “HERBICIDAL PYRIDAZINONE DERIVATIVES” (priority 2007, published 2010).

Key:
Format in all cases: in vivo
[1] = tested on: barnyardgrass (Echinochloa crus-galli); experiment: Test A pre-/postemergence plant response
Outline: (§1)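 Soil: loam blended with sand. Formulation: non-phytotoxic solvent mixture plus surfactant, applied as preemergence directed soil spray and as postemergence spray. Scoring: visual, 0 no effect to 100 complete control, roughly 10 days post-treatment in greenhouse.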

corn (Zea mays) = experiment: Test A pre-/postemergence plant response
Outline: as §1

[2] = tested on: giant foxtail (Setaria faberi); experiment: Test A pre-/postemergence plant response
Outline: as §1

[3] = tested on: large crabgrass (Digitaria sanguinalis); experiment: Test A pre-/postemergence plant response
Outline: as §1

[4] = tested on: morningglory (Ipomoea coccinea); experiment: Test A pre-/postemergence plant response
Outline: as §1

[5] = tested on: velvetleaf (Abutilon theophrasti); experiment: Test A pre-/postemergence plant response
Outline: as §1

[6] = tested on: wheat (Triticum aestivum); experiment: Test B pre-/postemergence plant response
Outline: (§2)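 Visual scoring from 0 (no effect) to 100 (complete control) against untreated controls was done 13 to 15 days after greenhouse treatment. Chemicals were formulated in a surfactant-containing non-phytotoxic solvent and applied to soil preemergence or to 1- to 4-leaf (2-18 cm) plants postemergence.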

wild oat (Avena fatua) = experiment: Test B pre-/postemergence plant response
Outline: as §2

[7] = tested on: yellow nutsedge (Cyperus esculentus); experiment: Test B pre-/postemergence plant response
Outline: as §2

[8] = tested on: canarygrass (Phalaris minor); experiment: Test B postemergence plant response; conditions: for Plant response rating, Canarygrass: Postemergence, scale 0 to 100
Outline: (§3)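 Emerged plants, 1- to 4-leaf stage, treated; greenhouse 13–15 d; eye-scored vs untreated controls (0–100 scale).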

[9] = tested on: chickweed (Stellaria media); experiment: Test B postemergence plant response; conditions: for Plant response rating, Chickweed: Postemergence
Outline: as §3

[10] = tested on: windgrass (Apera spica-venti); experiment: Test B postemergence plant response; conditions: for Windgrass plant response rating: postemergence, 0-100 scale; for Plant response rating, Windgrass: Postemergence
Outline: as §3

[11] = tested on: winter barley (Hordeum vulgare); experiment: Test B postemergence plant response; conditions: for Plant response rating, Barley: Postemergence, scale 0 to 100, 0 no effect, 100 complete control
Outline: as §3

[12] = Postemergence, 31 g ai/ha, 0 to 100 scale, 0 no effect, 100 complete control
[13] = Postemergence, 125 g ai/ha, 0 to 100 scale, 0 no effect, 100 complete control
[14] = Preemergence, 31 g ai/ha, 0 to 100 scale, 0 is no effect, 100 is complete control
[15] = Preemergence, 125 g ai/ha, 0 to 100 scale (0 no effect, 100 complete control)
[16] = 8 g ai/ha, postemergence, 0-100 scale
[17] = 16 g ai/ha, postemergence, 0-100 scale
[18] = Postemergence, 31 g ai/ha, scale 0 to 100
[19] = Postemergence, 62 g ai/ha, scale 0 to 100, 0 no effect, 100 complete control
[20] = Preemergence, 31 g ai/ha, scale 0 to 100 (0 no effect, 100 complete control)
[21] = Preemergence, 62 g ai/ha, 0 to 100 scale, 0 no effect, 100 complete control
[22] = Preemergence, 16 g ai/ha, scale 0 to 100
[23] = Preemergence, 8 g ai/ha, scale 0 to 100
[24] = 62 g ai/ha, scale 0 to 100, 0 no effect, 100 complete control

CCc1cc(-c2ccc(C(F)(F)F)cc2)nn1-c1c(O)c(OC)nn(C)c1=O [Compound 66]
Plant response rating, Barnyardgrass [1, 12]: 100
Plant response rating, Barnyardgrass [1, 13]: 100
Plant response rating, Barnyardgrass [1, 14]: 10
Plant response rating, Barnyardgrass [1, 15]: 100
Plant response rating, Corn (corn (Zea mays); [12]): 100
Plant response rating, Corn (corn (Zea mays); [13]): 100
Plant response rating, Corn (corn (Zea mays); [14]): 40
Plant response rating, Corn (corn (Zea mays); [15]): 80
Plant response rating, Foxtail, Giant [2, 12]: 100
Plant response rating, Foxtail, Giant [2, 13]: 100
Plant response rating, Foxtail, Giant [2, 14]: 90
Plant response rating, Foxtail, Giant [2, 15]: 100
Plant response rating, Crabgrass, Large [3, 12]: 100
Plant response rating, Crabgrass, Large [3, 13]: 100
Plant response rating, Crabgrass, Large [3, 14]: 0
Plant response rating, Crabgrass, Large [3, 15]: 70
Plant response rating, Morningglory [4, 12]: 0
Plant response rating, Morningglory [4, 13]: 0
Plant response rating, Morningglory [4, 14]: 0
Plant response rating, Morningglory [4, 15]: 0
Plant response rating, Velvetleaf [5, 12]: 0
Plant response rating, Velvetleaf [5, 13]: 0
Plant response rating, Velvetleaf [5, 14]: 0
Plant response rating, Velvetleaf [5, 15]: 0
Wheat plant response rating [6, 16]: 95
Wheat plant response rating [6, 17]: 100
Plant response rating, Wheat [6, 18]: 100
Plant response rating, Wheat [6, 19]: 100
Plant response rating, Wheat [6, 20]: 95
Plant response rating, Wheat [6, 21]: 95
Wheat plant response rating [6, 22]: 90
Oat, Wild plant response rating (wild oat (Avena fatua); [16]): 95
Oat, Wild plant response rating (wild oat (Avena fatua); [17]): 100
Plant response rating, Oat, Wild (wild oat (Avena fatua); [18]): 100
Plant response rating, Oat, Wild (wild oat (Avena fatua); [19]): 100
Plant response rating, Oat, Wild (wild oat (Avena fatua); [20]): 95
Plant response rating, Oat, Wild (wild oat (Avena fatua); [21]): 100
Oat, Wild plant response rating (wild oat (Avena fatua); [23]): 90
Oat, Wild plant response rating (wild oat (Avena fatua); [22]): 95
Nutsedge, Yellow plant response rating [7, 16]: 0
Nutsedge, Yellow plant response rating [7, 17]: 0
Plant response rating, Nutsedge, Yellow [7, 18]: 0
Plant response rating, Nutsedge, Yellow [7, 19]: 0
Plant response rating, Nutsedge, Yellow [7, 20]: 0
Plant response rating, Nutsedge, Yellow [7, 21]: 100
Nutsedge, Yellow plant response rating [7, 23]: 0
Nutsedge, Yellow plant response rating [7, 22]: 0
Canarygrass plant response rating [8, 16]: 40
Plant response rating, Canarygrass ([8]; 16 g ai/ha): 90
Plant response rating, Canarygrass ([8]; 31 g ai/ha): 95
Chickweed plant response rating [9, 16]: 0
Plant response rating, Chickweed ([9]; 16 g ai/ha, scale 0 to 100): 0
Plant response rating, Chickweed ([9]; 31 g ai/ha, scale 0 to 100): 0
Plant response rating, Chickweed [9, 24]: 0
Windgrass plant response rating ([10]; 8 g ai/ha): 90
Windgrass plant response rating ([10]; 16 g ai/ha): 100
Plant response rating, Windgrass ([10]; 31 g ai/ha, scale 0 to 100): 100
Plant response rating, Windgrass [10, 24]: 100
Barley plant response rating [11, 16]: 90
Plant response rating, Barley ([11]; 16 g ai/ha): 98
Plant response rating, Barley ([11]; 31 g ai/ha): 100
